# Residues, ends and D or L forms follow the SMILES beside them.
# Tests used:
# brain tumor capillaries = details: intracarotid infusion of LTC4; cited from earlier work
# RG-2 glioma [1] = test: Evans blue (EB-albumin) staining of tumor and brain after intracarotid infusion; assay type: in vivo, Wistar rats; details: intracarotid bradykinin infusion; 2 ml/kg of 2% EB i.v.
# Procedure: After the intracarotid bradykinin infusion, the rat was perfused with 200 ml of phosphate buffer through the heart to wash out the remaining EB from the vessels. The brains were removed immediately and cut as coronal sections.
# Since EB binds to serum albumin (MW 67,000) in blood and distributes with albumin in vivo, EB staining in the tissue indicates the distribution of albumin (4). In order to observe the extravasated EB and not the EB remaining in the vessels in the brain, the blood from the brain was washed out by perfusing the rats with phosphate buffer from the heart.
# Six rats were used to examine whether RMP-7 could selectively deliver albumin to tumors. Evans blue (EB) was injected intravenously instead of radiolabeled tracers. After the preparation of rats, 2 ml/kg of 2% EB was injected intravenously instead of radiolabeled tracers. After the intracarotid RMP-7 (n=3) or vehicle (n=3) infusion, the rat was perfused with 200 ml of phosphate buffer through the heart to wash out the remaining EB from the vessels. The brains were removed immediately and cut as coronal sections.
# [2] = tested on: brain capillary endothelial cells; details: nanomolar concentrations of bradykinin; cited from earlier work
# RG-2 glioma [3] = test: Regional permeability (unidirectional transfer constant Ki) by quantitative autoradiography after intracarotid infusion; assay type: in vivo, Wistar rats
# Procedure: An experimental brain tumor model was made using female Wistar rats and RG-2 glioma cells. The RG-2 glioma cell line was maintained in a monolayer culture in F12 medium with 10% calf serum. Female Wistar rats, each weighing 150 to 250 gm were anesthetized with intra peritoneal pentobarbital (30 mg/kg). Glial tumors were implanted into the right hemisphere by intracerebral injections of 1×10^5 RG-2 glioma cells in five μl of 1.2% methyl cellulose (F12 medium). One week after tumor implantation, the rats were used for the brain tumor model.
# The rats were divided into two groups: a bradykinin group treated with intracarotid infusion of 10 […] of bradykinin or the control group treated with intracarotid infusion of saline. The effect of intracarotid infusion of bradykinin was compared to saline infusions by statistical analysis of the Ki values using ANOVA and Students T-Tests.
# (§1) [^14 C] AIB and [^14 C] dextran were used for quantitative autoradiographic examination of regional permeability. One week after tumor implantation, the rats were again anesthetized and a polyethylene (PE-10) catheter was inserted retrograde throughout the external carotid artery to the common carotid artery bifurcation ipsilateral to the tumor. The external carotid artery was then ligated. One femoral artery was cannulated to monitor systemic blood pressure and the other femoral artery was cannulated to withdraw arterial blood. Body temperature was maintained at […] and arterial blood gas levels, blood pressure, hematocrit were monitored. Animals with abnormal physiological parameters were eliminated. After rat preparation, bradykinin (10 μg/kg/min in saline) or saline as control was infused into the right carotid artery at a rate of 53.3 μ/min for 15 minutes. Five minutes after the start of the intracarotid infusion, 100 μCi/Kg of the tracer was injected as an intravenous bolus. A peristaltic withdrawal pump was used to withdraw femoral arterial blood at a constant rate of 0.083 ml/min immediately after injection of tracer for determination of serum radioactivity. Fifteen minutes after the start of intracarotid infusions, the animals were killed by decapitation and the brains were rapidly removed and frozen.
# Autoradiography was conducted as follows: the frozen brains were mounted onto pedestals with M-1 embedding matrix, and 20 μm coronal sections were cut into a cryotome. The sections were thawmounted onto cover slips, and autoradiograms were generated by coexposing the sections on Kodak XAR-5 film with tissue-calibrated ^14 C standards for 2 weeks. The sequential section was stained with hematoxylin for correlation of areas of histologically verified tumor with autoradiograms. The regional radioactivities were measured in tumor, brain surrounding the tumor (BST; areas at around 2 mm distance from the border of the tumor), ipsilateral cortex to tumor (ipsi cortex), contralateral cortex (contra cortex), ipsilateral white matter (ipsi WM), contralateral WM (contra WM), ipsilateral basal ganglia (ipsi BGG), and contralateral BGG (contra BGG). Quantitative analysis of the regional radioactivity was performed using a computer (Macintosh II) with a scanner (UMAX UC630) and the software, Image 1.45 (NIH). […]
# The frozen brains were mounted onto pedestals with M-1 embedding matrix, and 20 μm coronal sections were cut with a cryotome. The sections were thaw-mounted onto cover slips, and autoradiograms were generated by co-exposing the sections on Kodak XAR-5 film with tissue-calibrated ^14 C standards for 2 weeks. The sequential section was stained with hematoxylin for correlation of areas of histologically verified tumor with autoradiograms. The regional radioactivity was measured in tumor, brain surrounding the tumor (BST; areas within 2 mm distance from the border of the tumor), ipsilateral cortex to tumor, contralateral cortex, ipsilateral white matter (WM), contralateral WM, ipsilateral basal ganglia (BG), and contralateral BG. […]
# RG-2 glioma [4] = test: Blood volume in brain and tumor by graphic method using [14C] dextran; assay type: in vivo, Wistar rats; details: intracarotid bradykinin infusion
# Procedure: The blood volume for the quantitative examination of permeability was calculated with a graphic method using [^14 C] dextran (MW 70,000). The blood volume in normal brain tissue and tumors were 4.5 and 9.15 μ/g, respectively (FIG. 1). The slopes were the unidirectional transfer constants, the Ki values (μl/g/min), in the two groups. […] The tumor blood volume was almost twice that of the normal brain tissue, but the brain and tumor blood volumes were not altered by intracarotid bradykinin infusion.
# RMP-7 (at 1.5 μg/kg) or vehicle (control) was infused into the right carotid artery at a volume rate of 0.8 ml over 15 minutes (i.e. 53 μ/min). In blood volume studies, 100 μCi/kg of [^14 C] dextran was injected as an intravenous bolus at either 5, 10, 14 or 14.5 minutes after the start of the intracarotid infusion to make the circulation time of dextran 10, 5, 1, 0.5 minutes, respectively. […] A peristaltic withdrawal pump was used to withdraw femoral arterial blood at a constant rate of 0.083 ml/min immediately after the injection of the tracer for the determination of serum radioactivity. […]
# The blood volume for the quantitative examination of permeability was calculated with a graphic method using [^14 C] dextran. […] Ki was similar in these experiments whether calculated using the graphic method or the method described by Ohno (25) and Ziylan (26).
# [5] = set-up: species or system rats; details: rat, in vivo
# Procedure: At infusion rates greater than 20 μg/kg/min the systemic blood pressure in the rats was reduced.
# as §1
# One week after tumor implantation, the rats were again anesthetized and a polyethylene (PE-10) catheter was inserted retrograde through the external carotid artery to the common carotid artery bifurcation ipsilateral to the tumor. The external carotid artery was then ligated. […] Body temperature was maintained at 37° C. and arterial blood gases, blood pressure, and hematocrit were monitored. […]
# RMP-7 infused at a rate greater than 1.0 μg/kg/min (dissolved in phosphate buffer, pH 7.4) reduced systemic blood pressure in rats when given either intravenously or into the carotid artery. […] Physiological parameters, which included arterial blood pH, PaO2, were also monitored.
# normal brain capillary = details: in vivo; cited from earlier work
# RG-2 glioma [6] = test: Microscopic analysis with intravenously injected horseradish peroxidase (HRP); assay type: in vivo, Wistar rats
# Procedure: Microscopic analysis was performed using intravenously injected horseradish peroxidase (HRP) as described in (22). After rat preparation as previously described, bradykinin (10 μg/kg/min in saline) or saline as a control was injected into the fight carotid artery for 15 minutes. Five minutes after the start of the intracarotid infusion, 20 mg/100 g of horseradish peroxidase (HRP) was injected by an intravenous bolus. Ten minutes after the HRP injection, rats were perfused with a mixture of 2% glutaraldehyde and 2% formaldehyde in 0.1 sodium phosphate buffer solution at pH 7.4 through the heart. After fixation, the brains were removed and cut at 40 μm thickness on a vibratome. The sections were preincubated for 15 minutes at room temperature in the medium consisting of 10 ml 0.05 M-Tris-HCl buffer (pH 7.4), 3,3'-diaminobenzidine tetrahydrochloride and 0.02% hydrogen peroxide (Sigma). The sections were trimmed down to the areas of interests, post-fixed for 2 hours in 2% osmium tetroxide with 0.1M sodium phosphate, dehydrated, and embedded in plastic. Plastic sections 1 μm thick were observed under light microscopy.
# [7] = rat, in vivo; cited from earlier work
# [8] = tumor, intracarotid bradykinin 10 μg/kg/min vs saline
compound,measurement,setting,value
"CCCCC/C=C\C\C=C/C=C/C=C/[C@@H](SC[C@H](NC(=O)CC[C@H](N)C(=O)O)C(=O)NCC(=O)O)[C@@H](O)CCCC(=O)O [LTC4, leukotriene C4]",Effect on capillary permeability,brain tumor capillaries,selectively increases the permeability in brain tumor capillaries without affecting the permeability in normal brain capillaries
NC(N)=NCCC[C@H](NC(=O)[C@H](Cc1ccccc1)NC(=O)[C@@H]1CCCN1C(=O)[C@H](CO)NC(=O)[C@H](Cc1ccccc1)NC(=O)CNC(=O)[C@@H]1CCCN1C(=O)[C@@H]1CCCN1C(=O)[C@@H](N)CCCN=C(N)N)C(=O)O [bradykinin] (H-RPPGFSPFR-OH),Evans blue staining,RG-2 glioma [1],well recognized in the tumor but not in the normal brain
same,Stimulation of uptake of Lucifer yellow,[2],40%
same,Ki value of the brain surrounding tumor (BST) for [14C] AIB,"RG-2 glioma [3]; BST, 2 mm from tumor border, intracarotid bradykinin 10 μg/kg/min",3.50 ± 1.29 µL/g/min
same,"Ki values of brain regions without tumor, treated vs control","RG-2 glioma [3]; normal brain regions, intracarotid bradykinin 10 μg/kg/min",no significant differences
same,Ki value of the tumors for [14C] AIB (MW 103),"RG-2 glioma [3]; tumor, intracarotid bradykinin 10 μg/kg/min for 15 min",25.91 ± 6.78 µL/g/min
same,"Ki value of the tumors for [14C] dextran (MW 70,000)","RG-2 glioma [3]; tumor, intracarotid bradykinin 10 μg/kg/min for 15 min, mean±SD",17.84 ± 1.00 µL/g/min
same,"Ki of tumors for [14C] AIB, fold higher than control group",RG-2 glioma [3]; [8],1.8 fold
same,"Ki of tumors for [14C] dextran, fold higher than control group",RG-2 glioma [3]; [8],12 fold
same,"Brain and tumor blood volumes, change by infusion",RG-2 glioma [4],not altered
same,Effect on systemic blood pressure,[5],did not alter systemic blood pressure
same,Infusion rate at which systemic blood pressure was reduced,[5],greater than 20 μg/kg/min
same,HRP around normal brain capillary at high dose,normal brain capillary,caused intravasation of HRP around the normal brain capillary
same,HRP extravasation in normal brain,"RG-2 glioma [6]; normal brain, bradykinin 10 μg/kg/min intracarotid",no extravasation of HRP between cells
same,HRP stain in tumor,"RG-2 glioma [6]; tumor, bradykinin 10 μg/kg/min intracarotid 15 min",well recognized in the extracellular space between tumor cells
same,"Degradation of bradykinin in rats, time",[7],several hours
C[C@H](CS)C(=O)N1CCC[C@H]1C(=O)O [captopril],Systemic pressure when intravenous captopril infusion was used to enhance bradykinin effect,[5]; iv,hypotension occurred

# From patent publication US5527778A, “Method for selective opening of abnormal brain tissue capillaries” (priority 1995, dated 1996)
